Experimental data: patent US10577361B2, “Dopamine D3 receptor antagonists having a morpholine moiety” (Indivior UK Limited, priority 2015, dated 2020)

Experiments:
[1] = biological target: human dopamine type 3 receptor (hD3) (Homo sapiens (Human), UniProt P35462); experiment: [3H]-Spiperone binding assay at hD3 recombinant receptor (CHO-hD3 membranes); details: pKi only estimated to be accurate to about ±0.3-0.5
Procedure: [^3H]-Spiperone Binding Assay at hD3 and hD4 recombinant receptors CHO cells transiently transfected with human dopamine type 3 or 4 receptors (CHO-hD3 or CHO-hD4, respectively), were re-suspended in 20 mM HEPES, 2 mM EDTA (pH 7.4), homogenised and centrifuged at 40,000 g (20 min, 4° C.). After re-suspension, homogenization and centrifugation as above, the final pellet was re-suspended in 20 mM HEPES, 100 mM NaCl, 10 mM MgCl2, 1 mM EDTA (pH 7.4) and aliquots were kept at −80° C. [^3H]-Spiperone Binding experiments were performed in 96 deep-well polypropylene plates in 50 mM Tris/HCl, 120 mM NaCl, 5 mM KCl, 5 mM MgCl2 (pH 7.4). Compounds of invention were serially diluted in DMSO at 100 fold final concentrations in the assay (1% DMSO final in the assay). Displacement was performed in the presence of 0.3 nM [^3H]-Spiperone. The reaction was initiated by the addition of membrane suspension (4 μg and 12 μg of protein for CHO-hD3- and CHO-hD4 membranes, respectively) and lasted for 90 or 100 min (for hD3 or hD4 membranes, respectively) at 23° C. in a final volume of 500 μl. Non specific binding (NSB) was determined in the presence of 1 μM Spiperone. The binding reaction was stopped by rapid filtration through GF/B filterplates pre-soaked in 0.5% polyetylenimmine (PEI) using a Packard cell harvester. After washing with ice-cold 0.9% NaCl, the plate was left to dry before the addition of Microscint 20 ([…], PerkinElmer). Radioactivity was counted with a TopCount (PerkinElmer). Data were analysed by non-linear regression analysis using GraphPad Prism 5.0 (GraphPad Software). Saturation binding experiments were performed similar to the competition binding experiments using a radioligand concentrations ranging from 0.015 to 4.0 nM. […] Characterization of the human dopamine D3 receptor expressed in transfected cell lines.

[2] = biological target: human dopamine receptor type 2, long variant (hD2L) (Homo sapiens (Human), UniProt P14416); experiment: [3H]-Spiperone binding assay at hD2 recombinant receptor (CHO-Gα16-hD2L membranes)
Procedure: [^3H]-Spiperone Binding Assay at hD2 Recombinant Receptor CHO cells stably expressing human dopamine receptor type 2, long variant (hD2L), coupled to Gα16 protein (CHO-Gα16-hD2L) were re-suspended in 20 mM HEPES, 2 mM EDTA (pH 7.4), homogenised and centrifuged at 40,000 g (20 min, 4° C.). After re-suspension, homogenization and centrifugation as above, the final pellet was re-suspended in 20 mM HEPES, 100 mM NaCl, 10 mM MgCl2, 1 mM EDTA (pH 7.4) and aliquots were kept at −80° C. [^3H]-Spiperone Binding experiments were performed in 96 deep-well polypropylene plates in 50 mM Tris/HCl, 120 mM NaCl, 5 mM KCl, 5 mM MgCl2 (pH 7.4). […] Displacement was performed in the presence of 0.08 nM [^3H]-Spiperone. The reaction was initiated by the addition of membrane suspension (2 μg of protein for CHO-hD2 membranes) and lasted for 120 min at 23° C. in a final volume of 1000 μl. Non specific binding (NSB) was determined in the presence of 0.1 μM Spiperone. The binding reaction was stopped by rapid filtration through GF/B filterplates pre-soaked in 0.5% polyetylenimmine (PEI) using a Packard cell harvester. After washing with ice-cold 0.9% NaCl, the plate was left to dry before the addition of Microscint 20 (50 μl/well, PerkinElmer). Radioactivity was counted with a TopCount (PerkinElmer). […] Saturation binding experiments were performed similar to the competition binding experiments using a radioligand concentrations ranging from 0.011 to 3.0 nM. […] Is Clozapine selective for the dopamine D4 receptor? […] Real-time analysis of dopamine: antagonist interactions at recombinant human D2long receptor upon modulation of its activation state. Brit. J.

Sequence of human dopamine type 3 receptor (hD3) (P35462 whole entry): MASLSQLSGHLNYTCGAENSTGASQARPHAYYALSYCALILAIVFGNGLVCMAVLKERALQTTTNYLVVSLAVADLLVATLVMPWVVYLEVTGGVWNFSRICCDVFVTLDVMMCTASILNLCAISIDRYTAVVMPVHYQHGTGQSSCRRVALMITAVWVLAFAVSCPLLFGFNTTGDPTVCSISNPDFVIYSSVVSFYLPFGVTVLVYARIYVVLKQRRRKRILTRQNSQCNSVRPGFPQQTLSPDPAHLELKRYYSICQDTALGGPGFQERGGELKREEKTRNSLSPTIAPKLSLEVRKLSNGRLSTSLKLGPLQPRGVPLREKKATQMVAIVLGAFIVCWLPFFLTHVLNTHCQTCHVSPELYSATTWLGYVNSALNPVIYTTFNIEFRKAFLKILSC

D3 p Ki [1]	D2 p Ki [2]	Compound
7.06		Cn1c(SCCCN2CCOC(c3ccc(C(F)(F)F)cc3F)C2)nnc1-c1ccc(C(N)=O)cc1 (centres unmarked) [Example 35]
6.9	5.04	Cn1c(SCCCN2CCOC(c3ccc(C(F)(F)F)cc3)C2)nnc1-c1ccc(-n2cnnc2)cc1 (centres unmarked) [Example 21, 4-[3-({4-methyl-5-[4-(4H-1,2,4-triazol-4-yl)phenyl]-4H-1,2,4-triazol-3-yl}sulfanyl)propyl]-2-[4-(trifluoromethyl)phenyl]morpholine]
6.36	4.81	Cn1c(SCCCN2CCOC(c3ccc(C(F)(F)F)cc3)C2)nnc1-c1ccc(-c2ncco2)cc1 (single isomer, unassigned) [Example 15, (2S or 2R)-4-[3-({4-methyl-5-[4-(1,3-oxazol-2-yl)phenyl]-4H-1,2,4-triazol-3-yl}sulfanyl)propyl]-2-[4-(trifluoromethyl)phenyl]morpholine]
7.79	4.91	Cn1c(SCCCN2CCOC(c3ccc(C(F)(F)F)cc3)C2)nnc1-c1ccc(-c2nnco2)cc1 (centres unmarked) [Example 29, 4-[3-({4-methyl-5-[4-(1,3,4-oxadiazol-2-yl)phenyl]-4H-1,2,4-triazol-3-yl}sulfanyl)propyl]-2-[4-(trifluoromethyl)phenyl]morpholine]
6.9	5.18	Cn1cccc1-c1nnc(SCCCN2CCOC(c3ccc(C(F)(F)F)cc3)C2)n1C (centres unmarked) [Example 24]
7.63	<5	Cc1nc(-c2ccc(-c3nnc(SCCCN4CCOC(c5ccc(C(F)(F)F)cc5)C4)n3C)cc2)no1 (centres unmarked) [Example 30, 4-[3-({4-methyl-5-[4-(5-methyl-1,2,4-oxadiazol-3-yl)phenyl]-4H-1,2,4-triazol-3-yl}sulfanyl)propyl]-2-[4-(trifluoromethyl)phenyl]morpholine]
6.76		Cn1c(SCCCN2CCOC(c3ccc(C(F)(F)F)cc3)C2)nnc1-c1cnccn1 (centres unmarked) [Example 19, 4-(3-{[4-methyl-5-(pyrazin-2-yl)-4H-1,2,4-triazol-3-yl]sulfanyl}propyl)-2-[4-(trifluoromethyl)phenyl]morpholine]

The remaining lines, values behind:

Compound	D3 p Ki [1]	D2 p Ki [2]
Cn1c(SCCCN2CCOC(c3ccc(C(F)(F)F)cc3)C2)nnc1-c1nccs1 (centres unmarked) [Example 26, 4-(3-{[4-methyl-5-(1,3-thiazol-2-yl)-4H-1,2,4-triazol-3-yl]sulfanyl}propyl)-2-[4-(trifluoromethyl)phenyl]morpholine]	6.55	5.14
Cn1c(SCCCN2CCOC(c3ccc(C(F)(F)F)cc3)C2)nnc1-c1ccc(C(N)=O)cc1 (centres unmarked) [Example 11, 4-{4-methyl-5-[(3-{2-[4-(trifluoromethyl)phenyl]-morpholin-4-yl}propyl)sulfanyl]-4H-1,2,4-triazol-3-yl}benzamide]	7.46	4.96
Cn1c(SCCCN2CCOC(c3ccc(C(F)(F)F)cc3)C2)nnc1-c1ccc(S(N)(=O)=O)cc1 (centres unmarked) [Example 33, 4-{4-methyl-5-[(3-{2-[4-(trifluoromethyl)phenyl]morpholine-4-yl}propyl)sulfanyl]-4H-1,2,4-triazol-3-yl}benzene-1-sulfonamide]	6.87	<4.5
Cn1c(SCCCN2CCOC(c3ccc(C(F)(F)F)cc3)C2)nnc1-c1cccc(C(N)=O)c1 (centres unmarked) [Example 23, 3-{4-methyl-5-[(3-{2-[4-(trifluoromethyl)phenyl]morpholin-4-yl}propyl)sulfanyl]-4H-1,2,4-triazol-3-yl}benzamide]	6.53	4.82
Cn1c(SCCCN2CCOC(c3ccc(C(F)(F)F)cc3)C2)nnc1-c1ccc(-c2ncco2)cc1 (centres unmarked) [Example 14, 4-[3-({4-methyl-5-[4-(1,3-oxazol-2-yl)phenyl]-4H-1,2,4-triazol-3-yl}sulfanyl)propyl]-2-[4-(trifluoromethyl)phenyl]morpholine]	8.31	5.83
Cn1c(SCCCN2CCOC(c3ccc(C(F)(F)F)cc3)C2)nnc1-c1ccc(C(N)=O)nc1 (centres unmarked) [Example 20, 5-{4-methyl-5-[(3-{2-[4-(trifluoromethyl)phenyl]morpholin-4-yl}propyl)sulfanyl]-4H-1,2,4-triazol-3-yl}pyridine-2-carboxamide]	7.45	
Cc1ncoc1-c1nnc(SCCCN2CCOC(c3ccc(C(F)(F)F)cc3F)C2)n1C (centres unmarked) [Example 34]	6.71	4.96
Cn1c(SCCCN2CCOC(c3ccc(C(F)(F)F)cc3)C2)nnc1-c1ccc(C(N)=O)cc1 (single isomer, unassigned) [Example 13, 4-[4-methyl-5-({3-[(2R or 2S)-2-[4-(trifluoromethyl)phenyl]morpholin-4-yl]propyl}sulfanyl)-4H-1,2,4-triazol-3-yl]benzamide]	7.94	4.86
Cn1c(SCCCN2CCOC(c3ccc(C(F)(F)F)cc3)C2)nnc1C1CCCCC1 (centres unmarked) [Example 25, 4-{3-[(5-cyclohexyl-4-methyl-4H-1,2,4-triazol-3-yl)sulfanyl]propyl}-2-[4-(trifluoromethyl)phenyl]morpholine]	7.36	5.05
CC(=O)c1ccc(-c2nnc(SCCCN3CCOC(c4ccc(C(F)(F)F)cc4)C3)n2C)cc1 (centres unmarked) [Example 32, 1-(4-{4-methyl-5-[(3-{2-[4-(trifluoromethyl)phenyl]morpholine-4-yl}propyl)sulfanyl]-4H-1,2,4-triazol-3-yl}phenyl)ethan-1-one]	7.18	4.65
Cn1c(SCCCN2CCOC(c3ccc(C(F)(F)F)cc3)C2)nnc1-c1ccc(C#N)cc1 (centres unmarked) [Example 31, 4-{4-methyl-5-[(3-{2-[4-(trifluoromethyl)phenyl]morpholin-4-yl}propyl)sulfanyl]-4H-1,2,4-triazol-3-yl}benzonitrile]	6.97	4.95
Cn1c(SCCCN2CCOC(c3ccc(C(F)(F)F)cc3)C2)nnc1-c1ccc(-c2ncco2)cc1 (single isomer, unassigned) [Example 16, (2R or 2S)-4-[3-({4-methyl-5-[4-(1,3-oxazol-2-yl)phenyl]-4H-1,2,4-triazol-3-yl}sulfanyl)propyl]-2-[4-(trifluoromethyl)phenyl]morpholine]	8.23	5.28
Cn1c(SCCCN2CCOC(c3ccc(C(F)(F)F)cc3)C2)nnc1-c1cccnc1 (centres unmarked) [Example 18, 4-(3-{[4-methyl-5-(pyridin-3-yl)-4H-1,2,4-triazol-3-yl]sulfanyl}propyl)-2-[4-(trifluoromethyl)phenyl]morpholine]	6.77	4.83
Cc1ccc(C2CN(CCCSc3nnc(-c4ocnc4C)n3C)CCO2)cc1 (centres unmarked) [Example 36, 4-(3-{[4-methyl-5-(4-methyl-1,3-oxazol-5-yl)-4H-1,2,4-triazol-3-yl]sulfanyl}propyl)-2-(4-methylphenyl)morpholine]	6.17	
Cn1nccc1-c1nnc(SCCCN2CCOC(c3ccc(C(F)(F)F)cc3)C2)n1C (centres unmarked) [Example 27, 4-(3-{[4-methyl-5-(1-methyl-1H-pyrazol-5-yl)-4H-1,2,4-triazol-3-yl]sulfanyl}propyl)-2-[4-(trifluoromethyl)phenyl]morpholine]	6.16	<5
Cc1ncoc1-c1nnc(SCCCN2CCOC(c3ccc(Br)cc3)C2)n1C (centres unmarked) [Example 38, 2-(4-bromophenyl)-4-(3-{[4-methyl-5-(4-methyl-1,3-oxazol-5-yl)-4H-1,2,4-triazol-3-yl]sulfanyl}propyl)morpholine]	6.72	
